Test results as given in patent publication US9809521B2, “Cannabidinoid derivatives” (priority 2011, dated 2017).
pIC50: −log10 of the molar value.

Experiments:
[1] = biological target: CB2 receptors (Homo sapiens, UniProt P34972); test: Selectivity screen for CB2 receptors; type: binding
[2] = test system: Id-2; test: Western analysis of Id-2 expression in breast cancer cells; type: cell-based, human; settings: 1.0 μM, three days
[3] = test system: U251 GBM cells; test: Intracranial U251 GBM xenograft in nu/nu mice; type: in vivo, mouse
Procedure: Effects of CBD on GBM cell invasion in In Vivo Studies. To determine whether CBD could inhibit GBM cell invasion through intact brain tissue, an organotypic brain slice assay was utilized. GFP-labeled U251 cells were treated for two days in culture with vehicle or CBD. On the third day, the cells were harvested and transferred to the top of a 0.5 mm coronal rat brain slice obtain from a postnatal day 3 rat pup. A porous cell culture insert containing the slice was suspended for three days in a well containing conditioned media with either vehicle or 1 μM CBD. […] GBM tumors were generated in nu/nu mice by intracranial injection of U251 GBM cells. […] CBD produced a robust reduction of GBM progression, decreasing the tumor area by 95% (FIG. 14, panels B and C). […] This occurred concomitantly with a decrease in tumor cell proliferation (the number of Ki67-positive nuclei was decreased by 87%±9 (p<0.0001, Student's t-test)) (FIG. 14, panel D).

[4] = test system: Id-1; test: Quantitative Western analysis of Id-1 expression in different types of cancer cells; type: cell-based
Procedure: Quantitative Western analysis of Id-1 expression in different types of cancer cells with or without CBD treatment. Quantitative Western analysis was performed to examine whether CBD would downregulate Id-1 protein expression in cell lines for breast, prostate, salivary gland, head and neck, and glioblastoma cell lines. […] For the salivary gland cancer cell line, ACCM, a higher concentration of CBD (2.5 μM) was required to see a significant downregulation in Id-1 expression (FIG. 13, panel C (left)).

[5] = test system: 4T1 cells; test: In-vivo primary tumor proliferation (4T1 mammary fat pad, flank of Nude mice); parameters: species or system mouse; settings: daily treatment from one week post injection
Procedure: In-vivo studies of breast and brain tumor formation with CBD. The compounds of the disclosure were effective in inhibiting tumor formation in an in-vivo model. Breast cancer 4T1 cells were subcutaneously injected into the mammary fat pad of BALBc mice (FIG. 8, Panel A), or into the flank of Nude mice (FIG. 8, Panel B). After one week post injection, the mice were treated daily (systemic in A, and peritumoral in B) with CBD […]. Primary tumor volume was then calculated by measuring the perpendicular largest diameters of the tumor with a caliper and using the formula (L×W^2/2).

[6] = test system: SAS, HSC-2, ACCM and ACC2 cells; test: Head and neck and salivary gland cancer cells: Id-1 expression, viability, invasiveness; type: cell-based
Procedure: Measuring the effect of CBD on the aggressiveness of head and neck as well as salivary gland cancer cells. Head and neck cancer cell lines (SAS and HSC-2 in the upper panels) and salivary gland cancer cell lines (ACCM and ACC2 in the lower panels) were treated with CBD.

[7] = test system: U251 GBM cells; test: Viability assay, combination with Temozolomide; type: cell-based, human
Procedure: Viability Assays using drug combinations and statistical analysis: Multiple viability assays in a 96 well format were run for each compound and the average percent inhibition of cell viability was calculated and transformed to fraction affected (Fa) i.e., percent inhibitory effect. Additional CI values and a dose reduction index (DRI) were also calculated using Compusyn software. After determining the (IC50/Fa0.5) values of the drugs individually, components were then combined at the following concentration ranges: controls, 0.125×IC50, 0.25×IC50, 0.5×IC50 and a combination index was calculated where CI<1, =1, and >1 indicate synergism, additive effect, and antagonism, respectively.
Cell viability studies with U251 GBM cells using CBD in combination with Temozolomide. […] The concentration response curves were first generated for temozolomide, CBD alone, and a combination of CBD and temozolomide (FIG. 16, panel A). The inhibitory values from the concentration response curves were then used to calculate combination index (CI) values at multiple combination ratios (FIG. 16, panel B). From which, the data was also used to calculate (i) IC50 values, the slope of the curve (m) and a goodness of fit value (r).

[8] = test system: U251 cells; test: Cell cycle analysis (PI staining, FACS); type: cell-based, human; settings: THC 1.7 μM, CBD 0.4 μM
Procedure: Cell cycle analysis: U251 cells were grown in Petri dishes (100 mm×15 mm) and received drug treatments for 2 days. On the third day, the cells were harvested and centrifuged at 1200 rpm for 5 minutes. The pellet was washed 1× with PBS+1% BSA, and centrifuged again. The pellet was re-suspended in 0.5 ml of 2% paraformaldehyde (diluted with PBS) and left to fix overnight at room temperature. The next day the cells were pelleted and re-suspended in 0.5 ml 0.3% Triton in PBS and incubated for 5 minutes at room temperature. The cells were then washed 2 times with PBS+1% BSA. The cells were finally suspended in PBS (0.1% BSA) with 10 ug/ml Propidium Iodide and 100 μg/ml RNAse. The cells were incubated for 30 minutes at room temperature before being stored at 4° C. Cell cycle was measured using a FACS Calibur using Cell Quest Pro and Modfit software.
Apoptosis Studies using U251 cells with Δ^9-THC and/or CBD. […] Therefore, U251 cells were treated with THC and CBD alone or with the combination of the two, and cell cycle was analyzed using cell flow cytometery (FIG. 20). […] Additionally, there was an increase in the population of cells in the G2/M phase. These changes in G1, S and G2/M phase are hallmarks of cell cycle arrest.
(§1) Albeit, the magnitude of these effects was reduced compared to those observed with the combination treatment.

[9] = test system: U251 cells; test: Apoptosis (annexin staining, FACS); type: cell-based, human
Procedure: Apoptosis: Cells were grown in 6 well culture dishes and were treated with compounds of the disclosure every 24 hours for three days. […] The labeled cells were analyzed by flow cytometry. Cell Flow Cytometry in combination with PI and annexin staining was used to quantify the percentage of cells undergoing apoptosis in control and treatment groups. Percent control was calculated as annexin positive staining in treated cells/control cells×100. PI staining was used to distinguish necrotic cells from those undergoing apoptosis.
as §1
The concentrations of the individual cannabinoids (THC and CBD) were next increased in order to attempt to match levels of apoptosis produced by the combination treatment. The purpose of these experiments was to determine whether the compounds alone recruited similar pathways as compared to the combination of THC and CBD. […] However, THC alone could not produce the level of apoptosis observed with the combination treatment (FIG. 23, panel A and B).

[10] = test system: U87 cells; test: MTT cell proliferation assay; settings: Homo sapiens, U-87 MG, 72 h, read-out: CBD IC50, U87

Chain of CB2 receptors (P34972 whole entry): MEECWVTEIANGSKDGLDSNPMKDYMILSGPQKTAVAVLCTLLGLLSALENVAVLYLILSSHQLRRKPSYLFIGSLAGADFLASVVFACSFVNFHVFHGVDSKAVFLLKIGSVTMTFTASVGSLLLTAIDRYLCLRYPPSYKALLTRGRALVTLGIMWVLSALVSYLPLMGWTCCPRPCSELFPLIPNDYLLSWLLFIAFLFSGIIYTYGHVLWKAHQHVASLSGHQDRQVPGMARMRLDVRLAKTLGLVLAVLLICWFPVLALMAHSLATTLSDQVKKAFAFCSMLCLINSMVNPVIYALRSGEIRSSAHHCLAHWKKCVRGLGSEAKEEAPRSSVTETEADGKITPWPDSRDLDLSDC

| SMILES | selectivity CB2 receptors over CB1 receptors [1] | up-regulation of Id-2 expression [2] | mice in which no tumor cells were observed ([3]; 15 mg/kg) | decrease of tumor area ([3]; 15 mg/kg i.p. 5 days a week for 28 days) [%] | decrease in number of Ki67-positive nuclei ([3]; 15 mg/kg, tumors responding to treatment) | Id-1 expression in tumors ([3]; tumors responding to treatment) | Id-1 protein expression in MDA-MB231, MDA-MB436, PC3, DU145, SAS, U251 and SF126 ([4]; 1.5 μM) | concentration required for significant downregulation in Id-1 expression, ACCM ([4]; salivary gland cancer cell line ACCM) [µM] | tumor proliferation in-vivo (primary tumor volume) [5] | ACCM tumor cell viability and invasiveness [6] | Id-1 gene expression in SAS, HSC-2, ACCM, ACC2 [6] | SAS tumor cell viability and invasiveness [6] | interaction with Temozolomide (combination index) [7] | cell cycle phases [8] | block of apoptosis by CB2 antagonist SR144528 ([9]; 0.5 μM SR144528, combination 1.7/0.4 μM, 2.5 μM THC, 2.0 μM CBD) | block of apoptosis by α-tocopherol ([9]; 20 μM α-tocopherol, combination 1.7/0.4 μM, 2.5 μM THC, 2.0 μM CBD) | apoptosis (annexin) ([9]; THC 1.7 μM, CBD 0.4 μM, three days) | pIC50 [10] |
| --- | --- | --- | --- | --- | --- | --- | --- | --- | --- | --- | --- | --- | --- | --- | --- | --- | --- | --- |
| CCCCC(C)(C)c1cc(O)c(C2CCC(C3CCCCC3)CC2)c(O)c1 (stereo not drawn) [Compound O-1663] | selective for targeting CB2 receptors over CB1 receptors | more potent than CBD at up-regulating Id-2 expression |  |  |  |  |  |  |  |  |  |  |  |  |  |  |  |  |
| C=C(C)[C@@H]1CCC(C)=C[C@H]1c1c(O)cc(CCCCC)cc1O [CBD, cannabidiol] |  |  | one of the five mice | 95 | 87%±9 | significant down-regulation of Id-1 expression | significant inhibition of Id-1 protein expression | 2.5 | potent inhibitor of tumor proliferation | significant effect on ACCM tumor cell viability and invasiveness | downregulated in all cell lines | significant effect on SAS tumor cell viability and invasiveness | acts synergistically with Temozolomide | increases in the population of cells in G1 and G2/M phase and decreases in cells in S phase | no reversal was observed with SR144528 | completely blocked by α-tocopherol | did not produce significant changes in apoptosis | 6.15 |
